Paper PMC11340245, “Studies of Protein Binding to Biomimetic Membranes Using a Group of Uniform Materials Based on Organic Salts Derived From 8-Anilino-1-naphthalenesulfonic Acid” (Applied Spectroscopy, 2024)

Experiment: Thermal stability by thermogravimetric analysis (TGA)
Assay type: physicochemical
Settings: heated from 25 to 595 °C, ramp rate 10 °C min^–1
Description: The thermal stability of [N4444][ANS] and [P4444][ANS] was investigated using a TA Discovery TGA 550 instrument. GUMBOS were heated from 25 to 595 °C using a ramp rate of 10 °C min^–1. The melting points of these compounds were also determined using a MEL-TEMP apparatus. Membrane partition and competitive binding assays were performed on a BioTek Cytation 3 imaging reader.
Thermal behaviors of [N4444][ANS] and [P4444][ANS] GUMBOS were further investigated using TGA. Figure S14 and Table S2 (Supplemental Material) present the weight loss curves and temperatures at which GUMBOS weight was reduced by 50% (T50%), respectively.

| Compound | T50% (half weight loss temperature) |
| --- | --- |
| CCCC[P+](CCCC)(CCCC)CCCC.O=S(=O)([O-])c1cccc2cccc(Nc3ccccc3)c12 [[P4444][ANS]] | 422 ºC |
| CCCC[N+](CCCC)(CCCC)CCCC.O=S(=O)([O-])c1cccc2cccc(Nc3ccccc3)c12 [[N4444][ANS]] | 308 ºC |
